Results taken from PubChem BioAssay AID330 (DTP/NCI, 2004).
Where “and” joins values, the source holds several entries; their conditions need not be identical. Equal entries are not always repeated. Toxic doses and inconclusive results are not listed.

Tested on: P388 leukemia ip, CD2F1 mice, survival T/C
Test: NCI In Vivo Anticancer Drug Screen. Data for tumor model P388 Leukemia (intraperitoneal) in CD2F1 (CDF1) mice
Details: endpoint: median survival time, higher = longer survival
In short: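 Mice carrying the transplanted tumor received test compound or vehicle. Survival was recorded in each group, and the value is the treated-group measurement divided by that of the vehicle-treated control group.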

[1] = dose: 60.0 mg/kg/injection, schedule: Q01DX005 (ip), vehicle: saline with Tween-80
[2] = dose: 120.0 mg/kg/injection, schedule: Q01DX005 (ip), vehicle: saline with Tween-80
[3] = dose: 50.0 mg/kg/injection, schedule: Q01DX009 (ip), vehicle: Klucel (hydroxypropylcellulose) (HPC)
[4] = dose: 100.0 mg/kg/injection, schedule: Q01DX009 (ip), vehicle: Klucel (hydroxypropylcellulose) (HPC)
[5] = dose: 200.0 mg/kg/injection, schedule: Q01DX009 (ip), vehicle: Klucel (hydroxypropylcellulose) (HPC)
[6] = dose: 50.0 mg/kg/injection, schedule: Q01DX005 (ip), vehicle: Klucel (hydroxypropylcellulose) (HPC)
[7] = dose: 100.0 mg/kg/injection, schedule: Q01DX005 (ip), vehicle: Klucel (hydroxypropylcellulose) (HPC)
[8] = dose: 200.0 mg/kg/injection, schedule: Q01DX005 (ip), vehicle: Klucel (hydroxypropylcellulose) (HPC)
[9] = dose: 60.0 mg/kg/injection, schedule: Q01DX005 (ip), vehicle: Klucel (hydroxypropylcellulose) (HPC)
[10] = dose: 120.0 mg/kg/injection, schedule: Q01DX005 (ip), vehicle: Klucel (hydroxypropylcellulose) (HPC)
[11] = dose: 50.0 mg/kg/injection, schedule: Q01DX009 (ip), vehicle: saline
[12] = dose: 100.0 mg/kg/injection, schedule: Q01DX009 (ip), vehicle: saline
[13] = dose: 12.5 mg/kg/injection, schedule: Q01DX009 (ip), vehicle: saline with Tween-80

## CC1COC2(CC1OC(=O)/C=C/c1ccccc1)OC1CC(C(=O)OC3OC(C)C(O)C(O)C3OC3OC(C)C(O)C(O)C3O)CCC1C21CO1 (stereo not drawn)
dose: 1.88 mg/kg/injection, schedule: Q01DX005 (ip), vehicle: saline + alcohol
  T/C: 106 % of control
dose: 3.75 mg/kg/injection, schedule: Q01DX005 (ip), vehicle: saline + alcohol
  T/C: 106 % of control
dose: 7.5 mg/kg/injection, schedule: Q01DX005 (ip), vehicle: saline + alcohol
  T/C: 111 % of control and 118 % of control
dose: 15.0 mg/kg/injection, schedule: Q01DX005 (ip), vehicle: saline + alcohol
  T/C: 118 % of control
dose: 60.0 mg/kg/injection, schedule: Q01DX005 (ip), vehicle: saline + alcohol
  T/C: 153 % of control

## COC(=O)C(=O)c1c(C(=O)OC)nc2nnc(N)n2c1-c1ccc(OC)cc1
[1]
  T/C: 100 % of control
[2]
  T/C: 107 % of control
dose: 240.0 mg/kg/injection, schedule: Q01DX005 (ip), vehicle: saline with Tween-80
  T/C: 96 % of control

## C/C1=C/C2OC(=O)C3(C)C2C(CC2(C)OC1=CC2=O)OC3(O)C(C)C (stereo not drawn)
dose: 10.0 mg/kg/injection, schedule: Q01DX005 (ip), vehicle: saline + alcohol
  T/C: 100 % of control
dose: 20.0 mg/kg/injection, schedule: Q01DX005 (ip), vehicle: saline + alcohol
  T/C: 102 % of control
dose: 40.0 mg/kg/injection, schedule: Q01DX005 (ip), vehicle: saline + alcohol
  T/C: 99 % of control
dose: 80.0 mg/kg/injection, schedule: Q01DX005 (ip), vehicle: saline + alcohol
  T/C: 109 % of control

## Nc1ccc2oc3cccnc3c2c1
dose: 100.0 mg/kg/injection, schedule: Q04DX003 (ip), vehicle: saline
  T/C: 104 % of control
dose: 200.0 mg/kg/injection, schedule: Q04DX003 (ip), vehicle: saline
  T/C: 111 % of control
dose: 400.0 mg/kg/injection, schedule: Q04DX003 (ip), vehicle: saline
  T/C: 102 % of control

## COc1ccc(Cc2c3cc(OC)c(OC)cc3cc(=O)n2C)cc1OC
[3]
  T/C: 106 % of control
[4]
  T/C: 106 % of control

## CCOC(=O)c1c(C)c2c(n1C)CCc1cn[nH]c1-2
dose: 25.0 mg/kg/injection, schedule: Q01DX009 (ip), vehicle: Klucel (hydroxypropylcellulose) (HPC)
  T/C: 99 % of control
[3]
  T/C: 105 % of control
[4]
  T/C: 107 % of control
[5]
  T/C: 107 % of control
dose: 400.0 mg/kg/injection, schedule: Q01DX009 (ip), vehicle: Klucel (hydroxypropylcellulose) (HPC)
  T/C: 98 % of control
dose: 600.0 mg/kg/injection, schedule: Q01DX009 (ip), vehicle: Klucel (hydroxypropylcellulose) (HPC)
  T/C: 98 % of control

## CN1CCc2c1n(-c1ccccc1)c(=S)n(-c1ccccc1)c2=S
[6]
  T/C: 107 % of control
[7]
  T/C: 100 % of control
[8]
  T/C: 98 % of control

## COC1(OC)OC(c2ccc([N+](=O)[O-])cc2)=C(c2ccc([N+](=O)[O-])cc2)OC1(OC)OC
[9]
  T/C: 90 % of control
[10]
  T/C: 87 % of control

## NC(=O)c1n[nH]c(=S)[nH]c1=O
[6]
  T/C: 102 % of control
[7]
  T/C: 91 % of control
[8]
  T/C: 96 % of control

## Fc1ccccc1/C=C/c1ccnnc1
[11]
  T/C: 94 % of control
[12]
  T/C: 95 % of control
dose: 200.0 mg/kg/injection, schedule: Q01DX009 (ip), vehicle: saline
  T/C: 103 % of control

## CCOC(=O)CC1(O)Oc2cc3c(cc2C(c2cc(OC)c(OC)c(OC)c2)C1C(=O)OCC)OCO3 (stereo not drawn)
[9]
  T/C: 87 % of control
[10]
  T/C: 89 % of control
dose: 240.0 mg/kg/injection, schedule: Q01DX005 (ip), vehicle: Klucel (hydroxypropylcellulose) (HPC)
  T/C: 88 % of control

## O=C1NNCc2c1oc1ccccc21
dose: 6.25 mg/kg/injection, schedule: Q01DX009 (ip), vehicle: saline with Tween-80
  T/C: 95 % of control
[13]
  T/C: 92 % of control
dose: 25.0 mg/kg/injection, schedule: Q01DX009 (ip), vehicle: saline with Tween-80
  T/C: 99 % of control

## O=P(O)(O)O.[Cr+3].[NH-]CC[NH-].[NH-]CC[NH-].[NH-]CC[NH-]
dose: 25.0 mg/kg/injection, schedule: Q01DX009 (ip), vehicle: saline
  T/C: 101 % of control
[11]
  T/C: 97 % of control
[12]
  T/C: 99 % of control

## O=C1NNC(c2ccccc2)C1(Cl)Cl (stereo not drawn)
[13]
  T/C: 101 % of control
dose: 50.0 mg/kg/injection, schedule: Q01DX009 (ip), vehicle: saline with Tween-80
  T/C: 99 % of control

## O=C(NC(Cc1ccc(F)cc1)C(=O)O)c1ccccc1 (stereo not drawn)
dose: 25.0 mg/kg/injection, schedule: Q01DX009 (ip), vehicle: other
  T/C: 113 % of control
dose: 50.0 mg/kg/injection, schedule: Q01DX009 (ip), vehicle: other
  T/C: 115 % of control
dose: 100.0 mg/kg/injection, schedule: Q01DX009 (ip), vehicle: other
  T/C: 110 % of control

## CC(=O)NCCSC(=O)C(O)(c1ccccc1)c1ccccc1
[3]
  T/C: 100 % of control
[4]
  T/C: 98 % of control
[5]
  T/C: 99 % of control

## O=NNc1cnccn1
dose: 1.56 mg/kg/injection, schedule: Q01DX009 (ip), vehicle: water
  T/C: 100 % of control
dose: 3.12 mg/kg/injection, schedule: Q01DX009 (ip), vehicle: water
  T/C: 109 % of control and 100 % of control
dose: 6.25 mg/kg/injection, schedule: Q01DX009 (ip), vehicle: water
  T/C: 110 % of control and 112 % of control and 97 % of control
dose: 12.5 mg/kg/injection, schedule: Q01DX009 (ip), vehicle: water
  T/C: 116 % of control and 122 % of control
dose: 25.0 mg/kg/injection, schedule: Q01DX009 (ip), vehicle: water
  T/C: 150 % of control
dose: 25.3 mg/kg/injection, schedule: Q01DX009 (ip), vehicle: other
  T/C: 161 % of control
dose: 25.3 mg/kg/injection, schedule: Q01DX009 (ip), vehicle: water
  T/C: 170 % of control
dose: 37.5 mg/kg/injection, schedule: Q01DX009 (ip), vehicle: water
  T/C: 224 % of control and 245 % of control and 271 % of control
dose: 38.0 mg/kg/injection, schedule: Q01DX009 (ip), vehicle: other
  T/C: 225 % of control
dose: 50.0 mg/kg/injection, schedule: Q01DX009 (ip), vehicle: water
  T/C: 118 % of control [middle of 5 runs]
dose: 57.0 mg/kg/injection, schedule: Q01DX009 (ip), vehicle: water
  T/C: 112 % of control

## FC(F)(F)COP(=S)(OCC(F)(F)F)OCC(F)(F)F
dose: 50.0 mg/kg/injection, schedule: Q01DX005 (ip), vehicle: saline with Tween-80
  T/C: 107 % of control
dose: 100.0 mg/kg/injection, schedule: Q01DX005 (ip), vehicle: saline with Tween-80
  T/C: 108 % of control
dose: 200.0 mg/kg/injection, schedule: Q01DX005 (ip), vehicle: saline with Tween-80
  T/C: 110 % of control

## CN(C)c1cc[n+](-c2c([O-])c3ccccc3n(-c3ccccc3)c2=O)cc1
[6]
  T/C: 107 % of control
[7]
  T/C: 104 % of control
[8]
  T/C: 97 % of control

## Nc1ccccc1OCCCn1cc(-c2ccc(Cl)c(Cl)c2)c(N)nc1=O
dose: 7.5 mg/kg/injection, schedule: Q01DX005 (ip), vehicle: Klucel (hydroxypropylcellulose) (HPC)
  T/C: 103 % of control
dose: 15.0 mg/kg/injection, schedule: Q01DX005 (ip), vehicle: Klucel (hydroxypropylcellulose) (HPC)
  T/C: 96 % of control
dose: 30.0 mg/kg/injection, schedule: Q01DX005 (ip), vehicle: Klucel (hydroxypropylcellulose) (HPC)
  T/C: 93 % of control

## Cc1cc(COCCN(C)C)on1
[1]
  T/C: 97 % of control
[2]
  T/C: 104 % of control
